We go through 7 compounds from PubChem BioAssay (NCI).

Values joined by “and” are separate entries in the source; they are usually repeats but may differ in a detail not shown here. Identical values can stand only once.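 How tested: cells in 96-well plates exposed to compound for 48 hours at five concentrations. Here, GI50 denotes the concentration required for 50% inhibition of growth. Definition used: TGI = concentration required for complete inhibition of growth.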 Some results are limits rather than exact numbers.

Assay in all cases: growth of human tumour cells (NCI), 48 h
The test system of test [1] is HT29 colon.
In test [2] the test system is MDA-MB-231 breast.
Test [3] deals with SF-268 CNS.
Test [4] concerns A549 NSCLC.
Test [5] deals with SR leukemia.
Test [6] deals with BT-549 breast.
In test [7] the test system is NCI/ADR-RES ovarian.
Test [8] has as its system COLO 205 colon.
Test [9] has as its system HL-60(TB) leukemia.
The subject of test [10] is DU-145 prostate.

Take `COc1cc(N2C(=O)[C@H](O)C2c2ccc(SC)cc2)cc(OC)c1OC` (stereo not given in full): the GI50 in test [1] was below 0.01 µM; in [2] it was 0.0235 µM; in test [3], below 0.01 µM; in test [4] it was 0.0131 µM; in test [5] it was below 0.01 µM; in test [6], below 0.01 µM. For the same compound, the GI50 in test [7] is 0.0166 µM; in test [8] it was 0.0101 µM; in test [9] it was 0.0106 µM; in test [10] it was 0.0238 µM. Besides, the TGI in test [1] is 0.0887 µM; in [2] it was above 100 µM; in test [3], 59.3 µM; in test [4], above 100 µM; in [5], above 100 µM; in test [6], 0.0835 µM. Moreover, the TGI was above 100 µM in test [7], 0.0357 µM in test [8], 0.0448 µM in test [9] and above 100 µM in test [10].
As to `O=[N+]([O-])c1ccc(C=Cc2ccccc2)cc1.[C-]#[O+].[C-]#[O+].[C-]#[O+].[Cr]`, the GI50 in test [1] is 29.5 µM; in test [2] it was 46.9 µM; in [3], 32 µM; in test [4], 8.69 µM; in [5] it was 2.49 µM; in [6] it was 24.1 µM. The GI50 was 13.4 µM in [7], 23.9 µM in test [8], 5.2 µM in [9] and 24.3 µM in test [10]. The TGI in [1], in test [2], in test [3], in test [4], in test [5] and in [6] was above 100 µM each time. The TGI in test [7], in test [8], in [9] and in [10] was above 100 µM throughout.
For `C[C@@H]1CN(Cc2ccc(F)cc2)[C@@H](C)CN1C(=O)c1cc2c(C(=O)C(=O)N(C)C)cn(C)c2cc1Cl`, the GI50 was 14 µM in [1]; 14.9 µM in test [2]; 18.5 µM in test [3]; 24 µM in test [4]; 13.4 µM in test [5]; 15.2 µM in test [6]. The GI50 in test [7] was 14.9 µM; in test [8] it was 7.66 µM; in test [9], 23.5 µM; in test [10], 18.8 µM. Besides, the TGI is 36.3 µM in test [1]; 32.7 µM in test [2]; 46.1 µM in test [3]; above 92.4 µM in [4]; 39.2 µM in test [5]; 41.8 µM in test [6]. Further, the TGI in test [7] amounted to 52.7 µM; in test [8], 25.4 µM; in test [9], 63.2 µM; in test [10] it was 53.1 µM.
For `CNCCCNCCCCNCCCN1C(=O)c2ccc3c4c(ccc(c24)C1=O)C(=O)N(CCCNCc1ccccc1OC)C3=O`, the GI50 is 3.36 µM in test [1]; 4.63 µM in test [2]; 3.51 µM in test [3]; 3.45 µM in test [4]; 4.42 µM in [5]; 3.4 µM in test [6]. For the same compound, the GI50 is 7.09 µM in test [7], 1.38 µM in test [8], 3.68 µM in test [9] and 5.09 µM in [10]. Also, the TGI amounted to 16.4 µM in test [1]; 70.2 µM in test [2]; 44.3 µM in test [3]; 20.2 µM in [4]; 43.9 µM in test [5]; 15.8 µM in [6]. Further, the TGI was above 100 µM in test [7], 8.16 µM in [8], 23.4 µM in [9] and 17.3 µM in [10].
For the compound `c1cnn2ncc(-c3ccnc(NCCCN4CCOCC4)n3)c2c1`, the GI50 was 7.43 µM in [1]; 8.04 µM in test [2]; 6.39 µM in [3]; 7.7 µM in [4]; 5.21 µM in test [5]; 7.5 µM in [6]. Moreover, the GI50 is 6.78 µM in test [7], 3.9 µM in [8], 6.08 µM in test [9] and 7.72 µM in test [10]. Further, the TGI is above 25 µM in [1]; above 25 µM in [2]; above 23.3 µM in [3]; above 25 µM in test [4]; above 21.3 µM in test [5]; above 25 µM in test [6]. Besides, the TGI in [7] was above 25 µM; in test [8], 7.96 µM; in [9], 17.7 µM; in test [10], above 25 µM.
For `OCC1OC(n2cnc3c(N/N=C\c4ccccn4)ncnc32)C(O)C1O` (stereo not given), the GI50 in [1] was 0.417 µM; in [2], 0.0781 µM; in test [3], 0.167 µM; in [4], 0.399 µM; in [5], 0.0387 µM; in test [6], 0.256 µM. In addition, the GI50 in test [7] was 0.185 µM; in [8], 0.622 µM; in test [9], 0.0247 µM; in [10] it was 0.0389 µM. Further, the TGI in test [1] was above 100 µM; in [2], above 57.3 µM; in test [3], 1 µM; in test [4], above 100 µM; in [5], above 87.7 µM; in test [6], 23 µM. The TGI in test [7] was 11.7 µM; in test [8], above 100 µM; in test [9], 0.204 µM; in test [10], 10.1 µM.
Turning to `C=CC(=O)Nc1cccc(Oc2nc(Nc3ccc(N4CCN(C)CC4)cc3)nc3ccsc23)c1`, the GI50 in test [1] was 1.91 µM and 2.72 µM; in test [2] it was 2.25 µM and 2.24 µM; in [3] it was 3.48 µM and 2.73 µM; in test [4], 3.47 µM and 3.71 µM; in test [5], 2.23 µM; in [6], 2.8 µM and 3.62 µM. The GI50 in [7] was 2.73 µM and 3.3 µM; in [8] it was 2.19 µM; in test [9], 1.43 µM; in test [10], 2.41 µM and 2.04 µM. The TGI is 4.05 µM and 5.81 µM in test [1]; 6.44 µM and 5.78 µM in test [2]; > 10 µM and 12.9 µM in test [3]; > 10 µM and 17.6 µM in [4]; 5.73 µM in [5]; > 10 µM and 14.6 µM in test [6]. In addition, the TGI in [7] is > 10 µM and 20.1 µM; in [8], 5.27 µM; in test [9], 4.09 µM; in test [10] it was > 10 µM and 6.24 µM.
